In brackets after ≈: the same amount, converted by molar mass. Activity calls are given as the source filed them. The calls are words filed in the database; no cut-off is given here.
What was measured:
[1] = test system: SK-MEL-2; assay: Cytotoxicity against human SK-MEL-2 cells after 48 hrs by SRB assay; type: functional, cell-based; settings: SK-MEL-2, 48 h
[2] = Cytotoxicity against mouse B16F1 cells after 48 hrs by SRB assay; type: functional, cell-based; settings: B16-F1, 48 h
[3] = test system: A549; assay: Cytotoxicity against human A549 cells after 48 hrs by SRB assay; type: functional, cell-based; settings: A549, 48 h
[4] = test system: HaCaT; assay: Inhibition of actin polymerization in human HaCaT cells assessed as aggregate-like structure at 12 ug/mL by immunofluorescence technique; type: cell-based
[5] = test system: HaCaT; assay: Inhibition of actin polymerization in human HaCaT cells assessed as aggregate-like structure at 40 ug/mL by immunofluorescence technique; type: cell-based
[6] = test system: HaCaT; assay: Inhibition of actin polymerization in human HaCaT cells assessed as aggregate-like structure at 1 ug/mL by immunofluorescence technique; type: cell-based
[7] = test system: HaCaT; assay: Inhibition of actin polymerization in human HaCaT cells assessed as aggregate-like structure by immunofluorescence technique; type: cell-based
[8] = test system: HaCaT; assay: Inhibition of actin polymerization in human HaCaT cells assessed as aggregate-like structure at 3.5 ug/mL by immunofluorescence technique; type: cell-based

For `COc1cc(/C=C/C(=O)OC[C@H](Cc2ccc(O)c(OC)c2)[C@H](COC(=O)/C=C/c2ccc(O)c(OC)c2)Cc2ccc(O)c(OC)c2)ccc1O`, the IC50 [1] was 10 µg/mL (≈ 14 µM), the IC50 [2] was 12 µg/mL (≈ 16.8 µM) and the IC50 [3] was 12 µg/mL (≈ 16.8 µM). For the same compound, the Activity [4] was “Active”.

For `COc1cc([C@H]2OC(=O)[C@H]3[C@@H]2CO[C@@H]3c2ccc(O)c(OC)c2)ccc1O`, the IC50 [1] was 20 µg/mL (≈ 53.7 µM), the Activity [5] was “inactive” and the IC50 [2] was 13 µg/mL (≈ 34.9 µM). The IC50 [3] was over 40 µg/mL.

In the case of `C=C1[C@@H](C)[C@H]2[C@H](Cc3ccccc3)NC(=O)[C@]23[C@H](OC(C)=O)/C=C/[C@@](C)(O)C(=O)[C@@H](C)C/C=C/[C@H]3[C@@H]1O`, the Activity [6] is reported as “Active”.

For `COc1cc([C@@H]2OC[C@@H]3[C@H]2CO[C@H]3c2ccc(O)c(OC)c2)ccc1O` [(+)-PINORESINOL], the IC50 [1] was over 40 µg/mL, the Activity [5] was “inactive” and the IC50 [2] was over 40 µg/mL. The IC50 [3] was over 40 µg/mL.

In the case of `COc1cc(C[C@@H](CO)[C@H](CO)Cc2ccc(O)c(OC)c2)ccc1O` [(+)-SECOISOLARICIRESINOL], the IC50 [1] is reported as over 40 µg/mL, the Activity [5] is reported as “inactive” and the IC50 [2] is reported as over 40 µg/mL. It also gave an IC50 [3] of over 40 µg/mL.

With `COc1cc(/C=C/C(=O)OC[C@H](Cc2ccc(O)c(OC)c2)[C@H](CO)Cc2ccc(O)c(OC)c2)ccc1O` [HANULTARIN] the IC50 [1] was 3 µg/mL (≈ 5.57 µM), the Activity [7] was “Dose-dependent effect” and the Activity [8] was “Active”. For the same compound, the IC50 [2] was 13 µg/mL (≈ 24.1 µM) and the IC50 [3] was 3 µg/mL (≈ 5.57 µM).
